{"source": "patent US9433616B2", "about": "“Methods and compositions for decreasing saliva production” (priority 2005, dated 2016)", "key": {"[1]": {"test_system": "muscarinic receptors in the muscles of the eye", "settings": "cited from earlier work"}, "[2]": {"test_system": "salivation in patients with Parkinson's disease", "settings": "in vivo; cited from earlier work"}, "[3]": {"test_system": "excessive sialorrhea in children with developmental disabilities", "settings": "cited from earlier work"}, "[4]": {"test_system": "clozapine-induced sialorrhea", "settings": "in vivo; cited from earlier work"}, "[5]": {"test_system": "dryness of the mouth in human subjects", "settings": "in vivo", "description": "This was an evaluation of the placebo and drug-containing disks conducted in a closed room while sitting and carrying on an otherwise normal conversation.\nNo food or drink intake for approximately 2 hours before test. One disk was inserted in the mouth between gum and cheek on the lower right quadrant of mouth.\nAll sat in a comfortable room and had not eaten for at least one hour before."}, "[6]": {"test_system": "sialorrhea in PD patients", "settings": "human, in vivo"}, "[7]": {"test_system": "salivary drying in healthy volunteers", "settings": "in vivo", "protocol": "The time of first noticeable dryness in the mouth and the time to complete disintegration of the film were noted. Comments about adverse events, taste, and tolerance were also recorded by the participants.\nThe secondary aims of this study were to determine: time of first noticeable dryness in the mouth, time to complete disintegration of the film, and the acceptability and tolerance of the bioadhesive buccal films by the subject.\nA blinded randomized crossover study in healthy volunteers.\nIn each treatment, the product was blind labeled.\nA thin film was removed from an individually wrapped pouch and placed in the inner cheek opposite the molars nearest to the submandibular gland. It was positioned with the fingers and the mucoadhesive property facilitated its adhesion.\nDissolve period: the dissolve period of the film was noted. It was defined as the time after which the film was no longer felt in the oral cavity.\nThe volunteer recorded the tolerance to the buccal mucosa and overall feel during testing."}, "[8]": {"test_system": "Parkinson's Disease (PD) patients complaining of sialorrhea", "settings": "human, in vivo, po", "description": "The aim was to assess personal impression by the patients of their sialorrhea symptoms, including, drooling, speech performance, and social interference, as well as the presence of side effects, such as blurred vision, confusion, somnolence, tachycardia, hypotension, or any other discomforting sensation. The patients were evaluated for 2 hours in an outpatient clinic while resting in comfortable armchairs. They rated themselves on a visual analog scale by marking a line representing the amount of disability incurred by their sialorrhea both before and after the treatment by responding to the question: “How would you grade the effect of the drops that you were administered on your sialorrhea?”\nThe patients were fluctuating PD patients evaluated in the ON state in the morning, having eaten no food for one hour before the test. […] The patients were instructed to perform some chewing like movements in order to distribute the drug homogeneously. The patients were instructed to fill the visual-analogical scale 1 hour after drug intake. In addition, they were asked about the latency of the effect, if any, and if the effect persisted before leaving."}, "[9]": {"test_system": "Parkinson's Disease (PD) patients suffering from sialorrhea", "settings": "human, in vivo", "description": "They were instructed to apply the drops to their tongues on an as needed basis."}}, "data": [{"smiles": "CN1[C@@H]2CC[C@H]1C[C@@H](OC(=O)C(CO)c1ccccc1)C2", "note": "(stereo partly shown) [atropine]", "values": [{"measurement": "time of peak mydriasis effect", "setting": "[1]; in vivo", "result": "30 to 40", "unit": "min"}, {"measurement": "effect after 30 minutes", "setting": "[2]", "result": "No effect was noted"}, {"measurement": "time results first observed after initial treatment", "setting": "[2]", "result": "three"}]}, {"smiles": "CN(C)CCOC(=O)C(c1ccccc1)C1(O)CCCC1", "note": "(stereo not shown) [cyclopentolate]", "values": [{"measurement": "duration of effect", "setting": "[1]; eye drops, some effects may persist for up to several days", "result": 8, "unit": "h"}]}, {"smiles": "C[N+]1(C)CCC(OC(=O)C(O)(c2ccccc2)C2CCCC2)C1", "note": "(stereo not drawn) [glycopyrrolate, 3-(α-cyclopentylmandeloy(osy)-1,1-dimethylpyrrolidinium bromide]", "values": [{"measurement": "control of excessive sialorrhea", "setting": "[3]", "result": "effective"}, {"measurement": "treated individuals with substantial adverse systemic side effects requiring discontinuation", "setting": "[3]; systemic administration", "result": "approximately 20%"}]}, {"smiles": "CC(C)[N+]1(C)[C@@H]2CC[C@H]1C[C@@H](OC(=O)C(CO)c1ccccc1)C2", "note": "(stereo partly shown) [ipratropium]", "values": [{"measurement": "clinical response", "setting": "[4]", "result": "partial yet clinically meaningful response"}, {"measurement": "time until effect of the spray wore off", "setting": "[4]", "result": "2 to 8", "unit": "h"}]}, {"smiles": "CCN(Cc1ccncc1)C(=O)C(CO)c1ccccc1", "note": "(stereo not shown) [tropicamide, N-ethyl-N-(4-pyridylmethyl) tropamide]", "values": [{"measurement": "time local numbness first noticed", "setting": "[5]; human", "result": 20, "unit": "min"}, {"measurement": "change in pupil size", "setting": "[5]", "result": "no obvious change in pupil size"}, {"measurement": "side effects", "setting": "[6]", "result": "No side effects were observed"}, {"measurement": "tolerance", "setting": "[7]", "result": "acceptable"}, {"measurement": "effect on heart rate (tachycardia), confusion, somnolence", "setting": "[8]", "result": "did not affect heart rate (cause tachycardia), confusion, or somnolence"}, {"measurement": "photosensitivity complaints", "setting": "[8]", "result": "No complaint of photosensitivity"}, {"measurement": "side effects or complications", "setting": "[8]", "result": "None of the patients developed side effects or complications"}, {"measurement": "taste tolerance", "setting": "[9]", "result": "complained of the taste of the medication"}]}]}
